22 compounds from patent US10988478B1, “Pyrazolo[1,5a]pyrimidine derivatives as IRAK4 modulators” (Genentech, Inc., priority 2015, dated 2021) can be followed below.

Each structure is given as a SMILES string.

human IRAK4, sequence (Q9NWZ3 whole entry, the tested form may be a part): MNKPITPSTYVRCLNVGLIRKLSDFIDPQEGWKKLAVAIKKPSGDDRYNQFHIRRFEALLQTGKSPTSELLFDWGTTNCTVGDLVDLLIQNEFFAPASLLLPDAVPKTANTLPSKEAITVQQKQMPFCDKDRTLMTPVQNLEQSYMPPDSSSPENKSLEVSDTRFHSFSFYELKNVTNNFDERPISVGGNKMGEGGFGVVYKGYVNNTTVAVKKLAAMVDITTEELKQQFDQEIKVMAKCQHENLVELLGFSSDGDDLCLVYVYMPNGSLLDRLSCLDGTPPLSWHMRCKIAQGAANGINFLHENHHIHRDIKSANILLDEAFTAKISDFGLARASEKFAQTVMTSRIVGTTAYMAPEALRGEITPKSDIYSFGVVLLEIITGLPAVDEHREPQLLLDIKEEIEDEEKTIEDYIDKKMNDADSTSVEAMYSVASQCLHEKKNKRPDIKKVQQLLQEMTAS

This assay addresses human IRAK4 (Homo sapiens (Human), UniProt Q9NWZ3). In words: IRAK4 kinase inhibition, Transcreener fluorescence polarization ADP assay. Type of assay: biochemical. The note with it: recombinant full-length His6-IRAK4; 125 uM ATP; 90 min; Ki computed using ATP Km 642 uM. The method, then: Compounds were assayed for inhibition of human IRAK4 and IRAK1 catalytic activity using recombinant enzyme produced from insect cells. Full-length IRAK4 protein, carrying an N-terminal His6-Tag, was obtained from Life Technologies (Carlsbad, Calif., USA). The IRAK1 construct was produced internally and was comprised of IRAK1 residues Arg194 to Ser712, preceded by an NH2-terminal His6 tag and the coding sequence for glutathione-S-transferase.
(In general: Fluorescence polarisation rises when a labelled molecule tumbles more slowly, as on binding a larger partner.)
As usually defined, the Ki is a measure of affinity in units of concentration, obtained from inhibition or displacement. `C[C@]1(C2CC2)Cc2cc(NC(=O)c3cnn4cccnc34)c(N3CCN(CC(F)F)CC3)cc2O1` [Example 159, (R)—N-(2-Cyclopropyl-6-(4-(2,2-difluoroethyl)piperazin-1-yl)-2-methyl-2,3-dihydrobenzofuran-5-yl)pyrazolo[1,5-a]pyrimidine-3-carboxamide]: the Ki was found to be 4.4 nM.

Regarding `Cn1ccc(-c2cc3c(cc2NC(=O)c2cnn4cccnc24)CC(C)(C)O3)n1` [Example 489, N-(2,2-dimethyl-6-(1-methyl-1H-pyrazol-3-yl)-2,3-dihydrobenzofuran-5-yl)pyrazolo[1,5-a]pyrimidine-3-carboxamide], the Ki worked out at 240 nM.

Consider `CC1(C)Cc2cc(NC(=O)c3cnn4cccnc34)c(N3CCN(CC(O)CO)CC3)cc2O1` (stereo not shown) [Example 469, N-(6-(4-(2,3-dihydroxypropyl)piperazin-1-yl)-2,2-dimethyl-2,3-dihydrobenzofuran-5-yl)pyrazolo[1,5-a]pyrimidine-3-carboxamide], for which the Ki was 8.8 nM.

On to `C[C@@]1(CO)Cc2cc(NC(=O)c3cnn4cccnc34)c(N3CCN(CCO)CC3)cc2O1` [Example 88, N-[(2S)-6-[4-(2-Hydroxyethyl)piperazin-1-yl]-2-(hydroxymethyl)-2-methyl-3H-benzofuran-5-yl]pyrazolo[1,5-a]pyrimidine-3-carboxamide], for which the Ki is 7.6 nM.

`CC1(C)Cc2cc(NC(=O)c3cnn4cccnc34)c(N3CC[C@@](C)(CO)C3)cc2O1` [Example 95, (R)—N-(6-(3-(hydroxymethyl)-3-methylpyrrolidin-1-yl)-2,2-dimethyl-2,3-dihydrobenzofuran-5-yl)pyrazolo[1,5-a]pyrimidine-3-carboxamide]: the Ki amounted to 25 nM.

On to `CN1CC[C@]2(Cc3cc(NC(=O)c4cnn5cccnc45)c(N4CCOCC4)cc3O2)C1` [Example 390, (R)—N-(1′-methyl-6-morpholino-3H-spiro[benzofuran-2,3′-pyrrolidin]-5-yl)pyrazolo[1,5-a]pyrimidine-3-carboxamide], for which the Ki came out at 16 nM.

In the case of `O=C(Nc1cc2c(cc1N1CCOCC1)OC1(C2)CN(CC(F)F)C1)c1cnn2cccnc12` [Example 147, N-(1-(2,2-Difluoroethyl)-6′-morpholino-3′H-spiro[azetidine-3,2′-benzofuran]-5′-yl)pyrazolo[1,5-a]pyrimidine-3-carboxamide], the Ki was found to be 23 nM.

Turning to `CC1(C)Cc2cc(NC(=O)c3cnn4cccnc34)c(N3CC[C@]4(CCOC4)C3)cc2O1` (single isomer, unassigned) [Example 223], the Ki was found to be 72 nM.

Consider `Cn1cc(COc2cc3c(cc2NC(=O)c2cnn4cccnc24)CC(C)(C)O3)cn1` [Example 300, N-(2,2-Dimethyl-6-((1-methyl-1H-pyrazol-4-yl)methoxy)-2,3-dihydrobenzofuran-5-yl)pyrazolo[1,5-α]pyrimidine-3-carboxamide], for which the Ki is 7 nM.

With `C[C@@]1(COC(F)F)Cc2cc(NC(=O)c3cnn4cccnc34)c(N3CCOCC3)cc2O1` [Example 156, (S)—N-(2-((difluoromethoxy)methyl)-2-Methyl-6-morpholino-2,3-dihydrobenzofuran-5-yl)pyrazolo[1,5-a]pyrimidine-3-carboxamide], the inhibition constant Ki was determined as 27 nM.

As for `CC1(C)Cc2cc(NC(=O)c3cnn4cccnc34)c(N3CCN(CCC(N)=O)CC3)cc2O1` [Example 455, N-(6-(4-(3-amino-3-oxopropyl)piperazin-1-yl)-2,2-dimethyl-2,3-dihydrobenzofuran-5-yl)pyrazolo[1,5-a]pyrimidine-3-carboxamide], the Ki came to 5.8 nM.

On to `CC1(C)Cc2cc(NC(=O)c3cnn4cccnc34)c(N3CCN(CCN4CCCC4=O)CC3)cc2O1` [Example 470, N-(2,2-dimethyl-6-(4-(2-(2-oxopyrrolidin-1-yl)ethyl)piperazin-1-yl)-2,3-dihydrobenzofuran-5-yl)pyrazolo[1,5-a]pyrimidine-3-carboxamide], for which the Ki was 12 nM.

In the case of `CC1(C)Cc2cc(NC(=O)c3cnn4cccnc34)c(O[C@H]3CC[C@H](O)CC3)cc2O1` [Example 65, Trans-N-[6-(4-hydroxycyclohexoxy)-2,2-dimethyl-3H-benzofuran-5-yl]pyrazolo[1,5-a]pyrimidine-3-carboxamide], the Ki stood at 9.2 nM.

As to `CC(C)(O)[C@]1(C)Cc2cc(NC(=O)c3cnn4cccnc34)c(N3CCN(CC(N)=O)CC3)cc2O1` [Example 524, N-[(2S)-6-[4-(2-amino-2-oxo-ethyl)piperazin-1-yl]-2-(1-hydroxy-1-methyl-ethyl)-2-methyl-3H-benzofuran-5-yl]pyrazolo[1,5-a]pyrimidine-3-carboxamide], the Ki was 4.1 nM.

Consider `CNC(=O)[C@H]1[C@@H]2CN(c3cc4c(cc3NC(=O)c3cnn5cccnc35)CC(C)(C)O4)C[C@@H]21` [Example 212, N-(2,2-dimethyl-6-((1R,5S,6r)-6-(methylcarbamoyl)-3-azabicyclo[3.1.0]hexan-3-yl)-2,3-dihydrobenzofuran-5-yl)pyrazolo[1,5-a]pyrimidine-3-carboxamide], for which the Ki was found to be 56 nM.

For the compound `COCCN1Cc2cc(NC(=O)c3cnn4cccnc34)c(N3CCOCC3)cc2C1=O` [Example 178, N-[2-(2-methoxyethyl)-6-morpholino-1-oxo-isoindolin-5-yl]pyrazolo[1,5-a]pyrimidine-3-carboxamide], the Ki stood at 15 nM.

With `C[C@@]1(CO)Cc2cc(NC(=O)c3cnn4cc(F)cnc34)c(N3CCOCC3)cc2O1` [Example 55, (S)-6-Fluoro-N-(2-(hydroxymethyl)-2-methyl-6-morpholino-2,3-dihydrobenzofuran-5-yl)pyrazolo[1,5-a]pyrimidine-3-carboxamide], the Ki is 34 nM.

Consider `CC1(C)Cc2cc(NC(=O)c3cnn4cccnc34)c(N3CCC(C#N)CC3)cc2O1` [Example 216, N-(6-(4-cyanopiperidin-1-yl)-2,2-dimethyl-2,3-dihydrobenzofuran-5-yl)pyrazolo[1,5-a]pyrimidine-3-carboxamide], for which the Ki turned out to be 3 nM.

Turning to `CC1(C)Cc2cc(NC(=O)c3cnn4cccnc34)c(OC[C@H]3CCCN3CC(F)F)cc2O1` [Example 292, (R)—N-(6-((1-(2,2-Difluoroethyl)pyrrolidin-2-yl)methoxy)-2,2-dimethyl-2,3-dihydrobenzofuran-5-yl)pyrazolo[1,5-a]pyrimidine-3-carboxamide], the Ki was found to be 760 nM.

For `CC(C)(O)[C@H](F)CN1Cc2cc(NC(=O)c3cnn4cc(Cl)cnc34)c(N3CCN(CC(F)F)CC3)cc2C1=O` [Example 285, 6-Chloro-N-[6-[4-(2,2-difluoroethyl)piperazin-1-yl]-2-[(2R)-2-fluoro-3-hydroxy-3-methyl-butyl]-1-oxo-isoindolin-5-yl]pyrazolo[1,5-a]pyrimidine-3-carboxamide], the Ki was found to be 2 nM.

Regarding `CC1(C)Cc2cc(NC(=O)c3cnn4cccnc34)c(N3CCN(CC4CC4)CC3)cc2O1` [Example 458, N-(6-(4-(cyclopropylmethyl)piperazin-1-yl)-2,2-dimethyl-2,3-dihydrobenzofuran-5-yl)pyrazolo[1,5-a]pyrimidine-3-carboxamide], the Ki was 37 nM.

For the compound `O=C(Nc1cc2c(cc1N1CCOCC1)OC1(C2)CN(CC(F)(F)F)C1)c1cnn2cccnc12` [Example 148, N-[6-Morpholino-1′-(2,2,2-trifluoroethyl)spiro[3H-benzofuran-2,3′-azetidine]-5-yl]pyrazolo[1,5-a]pyrimidine-3-carboxamide], the Ki was 6.1 nM.
